Measured values published in ChEMBL document CHEMBL2434836, “Studies on substituted benzo[h]quinazolines, benzo[g]indazoles, pyrazoles, 2,6-diarylpyridines as anti-tubercular agents” (Bioorg Med Chem Lett, 2013).

Experiments:
[1] = tested on: Mycobacterium tuberculosis; test: Antitubercular activity against Mycobacterium tuberculosis H37Rv assessed as growth inhibition by micro plate alamar blue assay; format: functional
[2] = Safety index, ratio of CC50 for human THP1 cells to MIC for Mycobacterium tuberculosis H37Rv; format: toxicity, cell-based, THP-1
[3] = Cytotoxicity against human THP1 cells after 24 hrs by MTT assay; format: cell-based, THP-1

| Structure (SMILES) | MIC [1] | selectivity ratio [2] | CC50 at 24 h [3] [µM] |
| --- | --- | --- | --- |
| CCOC(=O)CCCCCOc1ccc(-c2nc(N)nc3c2CCc2cc(OC)ccc2-3)cc1 | 200 µM | – | – |
| CCN(CC)CCOc1ccc(C2C3CCc4cc(OC)ccc4C3=NN2C(C)=O)cc1 (configuration not stated) | 200 µM | – | – |
| NNC(=O)c1ccncc1 [ISONIAZID] | 0.2 µM | – | – |
| COc1ccc2c(c1)CCc1c(-c3ccc(OCCN4CCCC4)cc3)nc(N)nc1-2 | 200 µM | – | – |
| N#Cc1c(N2CCCCC2)cc(-c2ccc(Br)cc2)nc1-c1ccccc1 | > 200 µM | – | – |
| COc1ccc2c(c1)CCc1c(-c3ccc(O)cc3)nc(N)nc1-2 | > 200 µM | – | – |
| Cc1ccc(-c2cc(/C(C#N)=C/N(C)C)n[nH]2)cc1 | > 200 µM | – | – |
| CCOC(=O)CCCCOc1ccc(-c2nc(N)nc3c2CCc2cc(OC)ccc2-3)cc1 | 200 µM | – | – |
| COc1ccc(-c2cc(CC#N)n[nH]2)cc1 | 200 µM | – | – |
| CC1=NN(C(=O)c2cc(-c3ccc(Cl)cc3)n[nH]2)C(=O)/C1=N/Nc1cccc(F)c1 | 0.35 µg/mL | – | – |
| Cc1ccc(-c2cc(N3CCCCC3)c(C#N)c(-c3ccccc3)n2)cc1 | > 200 µM | – | – |
| N#CCc1cc(-c2ccc(Br)cc2)[nH]n1 | 25 µM | 8 | > 200 |
| NC(=O)c1c(N2CCCCC2)cc(-c2ccc(Br)cc2)nc1-c1ccccc1 | > 200 µM | – | – |
| COc1ccc2c(c1)CCC1C2=NN(C(C)=O)C1c1ccc(OCCN2CCCC2)cc1 (configuration not stated) | 200 µM | – | – |
| COc1ccc2c(c1)CCc1c(-c3ccc(OCCCC(=O)NN)cc3)nc(N)nc1-2 | 200 µM | – | – |
| Cc1ccc(-c2cc(CC#N)n[nH]2)cc1 | > 200 µM | – | – |
| CN(C)/C=C(\C#N)c1cc(-c2ccc(Cl)cc2)[nH]n1 | > 200 µM | – | – |
| Cc1ccc(-c2cc(N3CCOCC3)c(C#N)c(-c3ccccc3)n2)cc1 | > 200 µM | – | – |
| COc1ccc2c(c1)CCc1c(-c3ccc(OCCN4CCCCC4)cc3)nc(N)nc1-2 | 50 µM | – | 200 |
| CO[C@H]1/C=C/O[C@@]2(C)Oc3c(C)c(O)c4c(O)c(c(/C=N/N5CCN(C)CC5)c(O)c4c3C2=O)NC(=O)/C(C)=C\C=C\[C@H](C)[C@H](O)[C@@H](C)[C@@H](O)[C@@H](C)[C@H](OC(C)=O)[C@@H]1C [RIFAMPIN] | 2 µM | – | – |
| CCOC(=O)/C(C#N)=C(\CC(=O)c1ccccc1)N1CCCCC1 | > 200 µM | – | – |

| Structure (SMILES) | MIC [1] | selectivity ratio [2] | CC50 at 24 h [3] [µM] |
| --- | --- | --- | --- |
| CN(C)/C=C(\C#N)c1cc(-c2ccc(Br)cc2)[nH]n1 | > 200 µM | – | – |
| CCSc1nc(Cl)c(C#N)c(-c2ccc(F)cc2F)n1 | 0.78 µg/mL | – | – |
| COc1ccc(-c2cc3ccnc(-c4ccccc4)n3n2)cc1 | > 200 µM | – | – |
| N#Cc1c(N2CCCCC2)cc(-c2ccc(Cl)cc2)nc1-c1ccccc1 | > 200 µM | – | – |
| COc1ccc2c(c1)CCC1C2=NN(C(C)=O)C1c1ccc(OCCN(C)C)cc1 (configuration not stated) | 200 µM | – | – |
| COc1ccc2c(c1)CCC1C2=NN(C(C)=O)C1c1ccc(OCCN2CCCCC2)cc1 (configuration not stated) | > 200 µM | – | – |
| N#Cc1c(N2CCCCC2)cc(-c2ccccc2)nc1-c1ccccc1 | > 200 µM | – | – |
| COc1ccc(-c2cc(N3CCCCC3)c(C#N)c(-c3ccccc3)n2)cc1 | > 200 µM | – | – |
| COc1ccc2c(c1)CCc1c(-c3ccc(OCCCCCC(=O)NN)cc3)nc(N)nc1-2 | 200 µM | – | – |
| CN[C@@H]1[C@H](O[C@H]2[C@H](O[C@H]3[C@H](O)[C@@H](O)[C@H](N=C(N)N)[C@@H](O)[C@@H]3N=C(N)N)O[C@@H](C)[C@]2(O)C=O)O[C@@H](CO)[C@H](O)[C@H]1O [STREPTOMYCIN] | 6 µM | – | – |
| COc1ccc2c(c1)CCc1c(-c3ccc(OC(C)CN(C)C)cc3)nc(N)nc1-2 (configuration not stated) | 200 µM | – | – |
| COc1ccc2c(c1)CCc1c(-c3ccc(OCCCCC(=O)NN)cc3)nc(N)nc1-2 | 200 µM | – | – |
| CCOC(=O)CCCOc1ccc(-c2nc(N)nc3c2CCc2cc(OC)ccc2-3)cc1 | 50 µM | – | 200 |
| COc1ccc2c(c1)CCc1c(-c3ccc(OCCN(C)C)cc3)nc(N)nc1-2 | 100 µM | – | 200 |
| O=c1nc2ccccn2cc1-c1cc(-c2ccccc2)[nH]n1 | > 200 µM | – | – |
| COc1ccc2c(c1)CCC1C2=NN(C(C)=O)C1c1ccc(O)cc1 (configuration not stated) | > 200 µM | – | – |
| N#CCc1cc(-c2ccc(Cl)cc2)[nH]n1 | > 200 µM | – | – |
| CN(C)/C=C(\C#N)c1cc(-c2ccccc2)[nH]n1 | 200 µM | – | – |
| COc1ccc(-c2cc(/C(C#N)=C/N(C)C)n[nH]2)cc1 | 100 µM | – | > 200 |
| COc1ccc2c(c1)CCC1C2=NN(C(C)=O)C1c1ccc(OC(C)CN(C)C)cc1 (configuration not stated) | 200 µM | – | – |
